From ChEMBL document CHEMBL5647694, “Novel orally bioavailable EZH1/2 dual inhibitors with greater antitumor efficacy than an EZH2 selective inhibitor” (Cancer Sci, 2017)

Legend:
[1] = target: ALK tyrosine kinase receptor (Homo sapiens) (UniProt Q9UM73); experiment: Inhibition of N-terminal GST-fused wild type human ALK cytoplasmic domain (1058 to 1620 residues ) expressed in baculovirus-infecetd Sf21 cells using Srctide as substrate at 1 uM in presence of ATP by Mobility shift assay
[2] = target: Tyrosine-protein kinase Blk (Homo sapiens) (UniProt P51451); experiment: Inhibition of N-terminal GST-fused full length human BLK (1 to 505 residues) expressed in baculovirus-infected Sf21 cells using Srctide as substrate at 1 uM in presence of ATP by Mobility shift assay
[3] = target: Epidermal growth factor receptor (Homo sapiens) (UniProt P00533); experiment: Inhibition of N-terminal GST-fused human EGFR cytoplasmic domain (669 to 1210 residues) expressed in baculovirus-infected Sf21 cells using Srctide as substrate at 1 uM in presence of ATP by Mobility shift assay
[4] = target: Ephrin type-B receptor 3 (Homo sapiens) (UniProt P54753); experiment: Inhibition of N-terminal GST-fused human EPHB3 cytoplasmic domain (596 to 998 residues) expressed in baculovirus-infected Sf21 cells using Blk/Lyntide as substrate at 1 uM in presence of ATP by Mobility shift assay
[5] = target: Focal adhesion kinase 1 (Homo sapiens) (UniProt Q05397); experiment: Inhibition of N-terminal GST-fused truncated human FAK (376 to 1052 residues) expressed in baculovirus-infected Sf21 cells using Blk/Lyntide as substrate at 1 uM in presence of ATP by Mobility shift assay
[6] = target: Proto-oncogene tyrosine-protein kinase ROS (Homo sapiens) (UniProt P08922); experiment: Inhibition of N-terminal GST-tagged human ROS cytoplasmic domain (1883 to 2347 residues) expressed in baculovirus-infected Sf21 cells using IRS1 as substrate at 1 uM in presence of ATP by Mobility shift assay
[7] = target: Tyrosine-protein kinase receptor TYRO3 (Homo sapiens) (UniProt Q06418); experiment: Inhibition of N-terminal GST-tagged human TYRO3 cytoplasmic domain (453 to 890 residues) expressed in baculovirus-infected Sf21 cells using CSKtide as substrate at 1 uM in presence of ATP by Mobility shift assay
[8] = target: AMPK alpha2/beta1/gamma1 (Homo sapiens) (UniProt P54646+P54619+Q9Y478); experiment: Inhibition of N-terminal GST-tagged full-length human AMPK alpha2 (1 to 552 residues)/N-terminal GST-tagged human AMPK beta1 (1 to 270 residues)/N-terminal GST-tagged human AMPK gamma1 (1 to 331 residues) expressed in baculovirus-infected Sf21 cells using SAMS peptide as substrate at 1 uM in presence of ATP by Mobility shift assay
[9] = target: CDK3/Cyclin E (Homo sapiens) (UniProt P24864+Q00526); experiment: Inhibition of N-terminal GST-tagged full length human CDK3 (1 to 305 residues)/N-terminal GST-tagged human CyclinE1 (1 to 410 residues) expressed in baculovirus-infected Sf21 cells using Modified Histone H1 as substrate at 1 uM in presence of ATP by Mobility shift assay
[10] = target: CDK6/cyclin D3 (Homo sapiens) (UniProt P30281+Q00534); experiment: Inhibition of N-terminal GST-tagged full length human CDK6 (1 to 326 residues)/GST-tagged human CyclinD3 (1 to 292 residues) expressed in baculovirus-infected Sf21 cells using DYRKtide-F as substrate at 1 uM in presence of ATP by Mobility shift assay
[11] = target: Casein kinase I isoform epsilon (Homo sapiens) (UniProt P49674); experiment: Inhibition of N-terminal GST-fused human CK1-epsilon catalytic domain (1 to 348 residues) expressed in baculovirus expression system using CKtide as substrate at 1 uM in presence of ATP by Mobility shift assay
[12] = target: Dual specificity protein kinase CLK1 (Homo sapiens) (UniProt P49759); experiment: Inhibition of N-terminal GST fused human CLK1 catalytic domain (129 to 484 residues) expressed in baculovirus expression system using DYRKtide-F as substrate at 1 uM in presence of ATP by Mobility shift assay
[13] = target: Serine/threonine-protein kinase DCLK2 (Homo sapiens) (UniProt Q8N568); experiment: Inhibition of N-terminal GST-fused truncated human DCAMKL2 (1 to 691 residues) expressed in baculovirus expression system using GS peptide as substrate at 1 uM in presence of ATP by Mobility shift assay
[14] = target: Glycogen synthase kinase-3 alpha (Homo sapiens) (UniProt P49840); experiment: Inhibition of N-terminal GST-fused full length human GSK3-alpha (1 to 483 residues) expressed in baculovirus expression system using CREBtide-p as substrate at 1 uM in presence of ATP by Mobility shift assay
[15] = target: Glycogen synthase kinase-3 beta (Homo sapiens) (UniProt P49841); experiment: Inhibition of N-terminal GST-fused full length human GSK3-beta (1 to 420 residues) expressed in baculovirus expression system using CREBtide-p as substrate at 1 uM in presence of ATP by Mobility shift assay
[16] = target: MAP kinase-activated protein kinase 5 (Homo sapiens) (UniProt Q8IW41); experiment: Inhibition of N-terminal GST-fused full length human MAPKAPK5 (1 to 471 residues) expressed in baculovirus expression system using GS peptide as substrate at 1 uM in presence of ATP by Mobility shift assay
[17] = target: MAP/microtubule affinity-regulating kinase 3 (Homo sapiens) (UniProt P27448); experiment: Inhibition of N-terminal GST-fused full length human MARK3 (1 to 729 residues) expressed in baculovirus expression system using CHKtide as substrate at 1 uM in presence of ATP by Mobility shift assay
[18] = target: MAP kinase-interacting serine/threonine-protein kinase 2 (Homo sapiens) (UniProt Q9HBH9); experiment: Inhibition of N-terminal GST-fused full length human MNK2 (1 to 465 residues) expressed in baculovirus expression system using RS peptide as substrate at 1 uM in presence of ATP by Mobility shift assay
[19] = target: Mitogen-activated protein kinase 11 (Homo sapiens) (UniProt Q15759); experiment: Inhibition of N-terminal GST-fused full length human p38beta (1 to 364 residues) expressed in Escherichia coli expression system using Modified Erktide as substrate at 1 uM in presence of ATP by Mobility shift assay
[20] = target: Protein kinase C eta type (Homo sapiens) (UniProt P24723); experiment: Inhibition of N-terminal GST-fused human full length PKC-eta (1 to 683 residues ) expressed in baculovirus expression system using PKC peptide as substrate at 1 uM in presence of ATP by Mobility shift assay
[21] = target: Serine/threonine-protein kinase N1 (Homo sapiens) (UniProt Q16512); experiment: Inhibition of N-terminal GST-fused full length human PKN1 (1 to 942 residues) expressed in baculovirus expression system using S6K peptide as substrate at 1 uM in presence of ATP by IMAP
[22] = target: Serine/threonine-protein kinase SIK1 (Homo sapiens) (UniProt P57059); experiment: Inhibition of N-terminal GST-fused full length human SIK (1 to 783 residues) expressed in baculovirus expression system using AMARA peptide as substrate at 1 uM in presence of ATP by Mobility shift assay
Sequence of Serine/threonine-protein kinase SIK1 (Homo sapiens) (P57059 whole entry, the tested form may be a part): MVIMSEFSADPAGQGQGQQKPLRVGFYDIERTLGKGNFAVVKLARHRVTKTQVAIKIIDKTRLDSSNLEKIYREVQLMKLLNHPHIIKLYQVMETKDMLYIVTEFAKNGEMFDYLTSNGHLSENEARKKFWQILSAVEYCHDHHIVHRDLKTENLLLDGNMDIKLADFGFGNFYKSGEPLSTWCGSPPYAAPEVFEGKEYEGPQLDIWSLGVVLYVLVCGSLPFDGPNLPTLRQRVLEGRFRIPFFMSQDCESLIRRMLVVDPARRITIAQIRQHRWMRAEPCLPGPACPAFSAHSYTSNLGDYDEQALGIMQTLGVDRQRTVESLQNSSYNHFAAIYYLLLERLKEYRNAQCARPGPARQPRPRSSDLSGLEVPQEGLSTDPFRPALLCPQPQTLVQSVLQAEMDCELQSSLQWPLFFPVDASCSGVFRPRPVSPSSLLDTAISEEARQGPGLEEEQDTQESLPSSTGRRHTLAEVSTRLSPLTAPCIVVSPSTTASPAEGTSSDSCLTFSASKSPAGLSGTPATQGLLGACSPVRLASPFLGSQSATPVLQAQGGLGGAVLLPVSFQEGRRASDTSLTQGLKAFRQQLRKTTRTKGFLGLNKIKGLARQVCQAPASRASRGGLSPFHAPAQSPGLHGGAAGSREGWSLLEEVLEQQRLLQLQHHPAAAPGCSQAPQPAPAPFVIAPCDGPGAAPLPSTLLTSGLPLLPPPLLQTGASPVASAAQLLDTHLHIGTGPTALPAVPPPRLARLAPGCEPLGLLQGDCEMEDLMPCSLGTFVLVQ

Sequence of MAP kinase-interacting serine/threonine-protein kinase 2 (Homo sapiens) (Q9HBH9 whole entry, looked up, the tested form may be a part): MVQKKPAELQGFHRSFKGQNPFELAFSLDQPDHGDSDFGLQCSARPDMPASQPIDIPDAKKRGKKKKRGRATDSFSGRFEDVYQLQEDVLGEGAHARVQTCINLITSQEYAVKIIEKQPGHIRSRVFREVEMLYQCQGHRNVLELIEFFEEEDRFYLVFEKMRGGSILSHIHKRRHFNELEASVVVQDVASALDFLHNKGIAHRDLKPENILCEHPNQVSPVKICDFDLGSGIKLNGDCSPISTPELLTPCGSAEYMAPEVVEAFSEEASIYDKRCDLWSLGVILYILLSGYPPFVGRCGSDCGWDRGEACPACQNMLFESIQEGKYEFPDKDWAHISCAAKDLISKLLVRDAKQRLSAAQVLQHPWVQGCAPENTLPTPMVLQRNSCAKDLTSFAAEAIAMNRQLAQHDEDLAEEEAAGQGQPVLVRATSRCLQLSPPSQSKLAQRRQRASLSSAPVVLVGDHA
Sequence of Mitogen-activated protein kinase 11 (Homo sapiens) (Q15759 whole entry, the tested form may be a part): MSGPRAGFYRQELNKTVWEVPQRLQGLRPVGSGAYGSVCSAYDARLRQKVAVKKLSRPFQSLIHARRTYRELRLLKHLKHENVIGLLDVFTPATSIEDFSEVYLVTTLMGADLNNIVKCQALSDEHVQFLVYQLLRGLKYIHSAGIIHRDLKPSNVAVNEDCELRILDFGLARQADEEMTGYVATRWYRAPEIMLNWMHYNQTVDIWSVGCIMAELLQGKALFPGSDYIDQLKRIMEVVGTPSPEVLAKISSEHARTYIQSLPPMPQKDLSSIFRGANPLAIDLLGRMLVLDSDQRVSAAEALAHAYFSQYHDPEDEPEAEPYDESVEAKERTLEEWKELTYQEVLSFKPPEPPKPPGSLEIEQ
Sequence of Protein kinase C eta type (Homo sapiens) (P24723 whole entry, the tested form may be a part): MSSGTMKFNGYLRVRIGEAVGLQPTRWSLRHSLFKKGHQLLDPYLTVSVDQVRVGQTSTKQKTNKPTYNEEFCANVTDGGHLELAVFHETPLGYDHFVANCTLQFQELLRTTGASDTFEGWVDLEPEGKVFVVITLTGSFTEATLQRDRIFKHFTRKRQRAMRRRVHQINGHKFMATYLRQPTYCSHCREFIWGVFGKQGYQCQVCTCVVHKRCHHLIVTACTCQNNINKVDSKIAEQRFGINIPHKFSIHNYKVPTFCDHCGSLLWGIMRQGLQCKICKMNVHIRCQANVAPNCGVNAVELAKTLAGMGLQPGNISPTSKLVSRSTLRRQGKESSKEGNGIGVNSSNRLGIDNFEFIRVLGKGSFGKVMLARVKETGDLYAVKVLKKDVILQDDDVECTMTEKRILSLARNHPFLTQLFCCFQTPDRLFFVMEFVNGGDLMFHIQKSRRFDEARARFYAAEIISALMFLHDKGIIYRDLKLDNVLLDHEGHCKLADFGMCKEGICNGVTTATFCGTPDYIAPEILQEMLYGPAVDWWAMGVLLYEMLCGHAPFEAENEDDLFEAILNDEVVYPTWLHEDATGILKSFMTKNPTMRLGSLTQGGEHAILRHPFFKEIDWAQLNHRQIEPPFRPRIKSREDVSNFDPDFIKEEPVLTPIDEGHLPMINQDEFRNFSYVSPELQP
Sequence of ALK tyrosine kinase receptor (Homo sapiens) (Q9UM73 19-1620 limits assumed): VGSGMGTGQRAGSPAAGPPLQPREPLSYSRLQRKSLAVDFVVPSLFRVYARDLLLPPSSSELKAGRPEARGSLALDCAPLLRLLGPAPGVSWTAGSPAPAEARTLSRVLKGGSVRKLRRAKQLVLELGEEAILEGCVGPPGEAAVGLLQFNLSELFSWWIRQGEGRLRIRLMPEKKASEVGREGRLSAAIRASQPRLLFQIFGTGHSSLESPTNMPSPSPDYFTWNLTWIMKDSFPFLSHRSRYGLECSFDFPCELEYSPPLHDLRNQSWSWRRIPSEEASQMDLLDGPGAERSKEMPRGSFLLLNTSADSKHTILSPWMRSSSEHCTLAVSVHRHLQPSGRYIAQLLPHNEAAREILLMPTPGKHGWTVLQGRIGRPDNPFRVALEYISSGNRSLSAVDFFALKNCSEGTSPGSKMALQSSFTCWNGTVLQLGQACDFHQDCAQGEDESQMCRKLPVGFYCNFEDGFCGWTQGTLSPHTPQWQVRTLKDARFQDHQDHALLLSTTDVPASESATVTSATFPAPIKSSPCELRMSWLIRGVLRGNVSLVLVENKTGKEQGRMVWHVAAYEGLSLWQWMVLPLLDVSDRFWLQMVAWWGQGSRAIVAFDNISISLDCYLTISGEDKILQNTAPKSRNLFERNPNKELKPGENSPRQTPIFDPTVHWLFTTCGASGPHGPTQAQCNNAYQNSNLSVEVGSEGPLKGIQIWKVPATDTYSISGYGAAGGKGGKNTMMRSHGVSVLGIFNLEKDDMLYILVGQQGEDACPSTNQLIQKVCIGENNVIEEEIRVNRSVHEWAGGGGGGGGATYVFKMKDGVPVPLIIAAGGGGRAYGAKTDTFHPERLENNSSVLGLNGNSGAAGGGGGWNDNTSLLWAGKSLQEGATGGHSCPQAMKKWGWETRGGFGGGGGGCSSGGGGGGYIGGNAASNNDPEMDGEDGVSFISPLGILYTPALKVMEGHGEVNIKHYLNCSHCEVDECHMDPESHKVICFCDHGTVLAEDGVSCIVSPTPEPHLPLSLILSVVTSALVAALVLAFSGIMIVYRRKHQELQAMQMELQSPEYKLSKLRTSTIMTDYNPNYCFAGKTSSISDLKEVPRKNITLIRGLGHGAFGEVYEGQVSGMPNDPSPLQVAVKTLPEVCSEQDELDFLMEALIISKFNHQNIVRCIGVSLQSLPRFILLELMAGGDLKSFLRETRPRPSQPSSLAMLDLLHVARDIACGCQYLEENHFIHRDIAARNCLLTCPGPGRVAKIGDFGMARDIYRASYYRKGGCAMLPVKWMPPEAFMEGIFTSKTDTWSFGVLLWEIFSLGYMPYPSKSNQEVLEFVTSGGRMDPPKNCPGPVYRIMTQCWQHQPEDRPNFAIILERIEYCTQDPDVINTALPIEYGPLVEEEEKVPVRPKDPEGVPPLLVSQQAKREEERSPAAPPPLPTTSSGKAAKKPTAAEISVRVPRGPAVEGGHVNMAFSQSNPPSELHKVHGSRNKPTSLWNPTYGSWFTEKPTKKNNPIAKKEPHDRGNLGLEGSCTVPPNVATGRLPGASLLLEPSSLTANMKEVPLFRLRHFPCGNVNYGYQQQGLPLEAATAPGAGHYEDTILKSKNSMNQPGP
Sequence of AMPK alpha2/beta1/gamma1 (Homo sapiens) (P54619 whole entry partner, the tested form may be a part): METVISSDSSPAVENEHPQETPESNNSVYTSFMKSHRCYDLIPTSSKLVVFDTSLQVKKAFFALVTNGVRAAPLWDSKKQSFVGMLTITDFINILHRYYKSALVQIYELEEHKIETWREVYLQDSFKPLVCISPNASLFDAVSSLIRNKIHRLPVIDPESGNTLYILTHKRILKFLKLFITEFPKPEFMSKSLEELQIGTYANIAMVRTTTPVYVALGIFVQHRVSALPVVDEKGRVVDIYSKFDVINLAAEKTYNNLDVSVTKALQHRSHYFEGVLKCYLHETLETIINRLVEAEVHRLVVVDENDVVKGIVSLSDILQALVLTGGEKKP
Sequence of AMPK alpha2/beta1/gamma1 (Homo sapiens) (P54646 whole entry, the tested form may be a part): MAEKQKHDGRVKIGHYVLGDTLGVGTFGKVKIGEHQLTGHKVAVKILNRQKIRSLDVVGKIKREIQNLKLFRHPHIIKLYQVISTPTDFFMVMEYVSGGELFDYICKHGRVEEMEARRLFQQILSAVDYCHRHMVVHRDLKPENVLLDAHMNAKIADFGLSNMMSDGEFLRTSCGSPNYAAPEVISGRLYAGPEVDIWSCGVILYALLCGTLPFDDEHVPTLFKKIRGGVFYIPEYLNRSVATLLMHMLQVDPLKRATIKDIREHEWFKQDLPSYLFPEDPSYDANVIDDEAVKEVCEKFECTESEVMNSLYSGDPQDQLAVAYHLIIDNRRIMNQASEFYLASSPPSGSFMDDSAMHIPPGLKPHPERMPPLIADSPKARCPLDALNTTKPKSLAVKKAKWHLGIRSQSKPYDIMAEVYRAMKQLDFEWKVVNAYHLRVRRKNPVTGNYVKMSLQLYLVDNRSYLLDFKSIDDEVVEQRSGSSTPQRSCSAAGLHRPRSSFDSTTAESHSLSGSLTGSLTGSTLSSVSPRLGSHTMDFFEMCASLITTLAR
Sequence of AMPK alpha2/beta1/gamma1 (Homo sapiens) (Q9Y478 2-270 partner limits assumed): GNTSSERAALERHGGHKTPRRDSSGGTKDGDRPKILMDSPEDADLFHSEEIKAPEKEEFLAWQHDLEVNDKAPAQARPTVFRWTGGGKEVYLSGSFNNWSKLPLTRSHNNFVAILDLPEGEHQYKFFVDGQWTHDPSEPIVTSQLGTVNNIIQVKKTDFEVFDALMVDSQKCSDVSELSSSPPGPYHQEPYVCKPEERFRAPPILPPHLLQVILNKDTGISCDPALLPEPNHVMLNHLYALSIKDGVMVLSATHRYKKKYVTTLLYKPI

| SMILES | inhibition [1] [%] | inhibition [2] [%] | inhibition [3] [%] | inhibition [4] [%] | inhibition [5] [%] | inhibition [6] [%] | inhibition [7] [%] | inhibition [8] [%] | inhibition [9] [%] | inhibition [10] [%] | inhibition [11] [%] | inhibition [12] [%] | inhibition [13] [%] | inhibition [14] [%] | inhibition [15] [%] | inhibition [16] [%] | inhibition [17] [%] | inhibition [18] [%] | inhibition [19] [%] | inhibition [20] [%] | further results |
| --- | --- | --- | --- | --- | --- | --- | --- | --- | --- | --- | --- | --- | --- | --- | --- | --- | --- | --- | --- | --- | --- |
| Cc1cc(C)c(CNC(=O)c2cc(Br)c3c(c2C)O[C@@](C)([C@H]2CC[C@H](N(C)C)CC2)O3)c(=O)[nH]1 | -2.8 | -3.1 | -2 | -4.4 | -1.5 | -2.1 | 0.9 | -1.2 | -1 | -8.9 | 1.5 | -3.3 | -2.7 | 1.8 | -3.3 | -3.1 | 0.7 | 7.2 | -3.1 | 10.8 | inhibition [21]: 6.7%; inhibition [22]: -3.1% |
| Cc1cc(C)c(CNC(=O)c2cc(Cl)c3c(c2C)O[C@@](C)([C@H]2CC[C@H](N(C)C)CC2)O3)c(=O)[nH]1 [VALEMETOSTAT] | -9.1 | -5 | -1.8 | -5.9 | -2.3 | -0.9 | -2.6 | -0.7 | -0.2 | -4.9 | -2.2 | 1.7 | -5.4 | 1.9 | -7.1 | -5.7 | 5.7 | 8.7 | -5.6 | 19.8 | inhibition [21]: 8.3%; inhibition [22]: 6.2% |
